Measured values reported in PubChem BioAssay (NCI).
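In this assay, cells in 96-well plates receive the compound at five concentrations for 48 hours. Endpoints are linearly interpolated between the surrounding concentrations. TGI is the concentration that stops growth completely.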

Assays:
Experiment in all cases: NCI tumour cell line growth inhibition, 48 h
DLD-1 colon = test system: DLD-1 colon
DMS 114 small cell lung = test system: DMS 114 small cell lung
KM20L2 colon = test system: KM20L2 colon
M19-MEL melanoma = test system: M19-MEL melanoma
RXF-631 renal = test system: RXF-631 renal
SNB-78 CNS = test system: SNB-78 CNS
XF 498 CNS = test system: XF 498 CNS
DMS 273 small cell lung = test system: DMS 273 small cell lung
HOP-18 NSCLC = test system: HOP-18 NSCLC

SMILES | TGI (DLD-1 colon) [µM] | TGI (DMS 114 small cell lung) [µM] | TGI (KM20L2 colon) [µM] | TGI (M19-MEL melanoma) [µM] | TGI (RXF-631 renal) [µM] | TGI (SNB-78 CNS) [µM] | TGI (XF 498 CNS) [µM] | TGI (DMS 273 small cell lung) [µM] | TGI (HOP-18 NSCLC) [µM]
CCOc1ccc(NC(=O)C2=C(C)NC(C)=C(C(=O)Nc3ccc(OCC)cc3)C2c2ccc(O)c(OC)c2)cc1 | > 100 | > 100 | > 100 | > 100 | > 100 | > 100 | 52 |  | 
CC(=O)O[C@]12CCCCC1C1(O)C(O)CCCCC12 (stereo not given in full) |  | > 100 | > 100 | > 100 |  | > 100 |  | > 100 | > 100
C#CCNC(=O)NCCCC(NC(C)=O)C(=O)NCc1ccccc1 (stereo not given) | > 100 | > 100 | > 100 | > 100 | > 100 | > 100 |  |  | > 100
Nc1ccc2nc(NCc3ccc(F)cc3)cnc2c1 |  | > 100 | > 100 |  |  | > 100 | > 100 | > 100 | 
CCCOC(=O)C1CCC(=O)N1C(=O)C(C)Cl (stereo not given) | > 100 | > 100 | > 100 | > 100 |  | > 100 | > 100 | > 100 | > 100
O=C1[C@@H]2C(c3ccc(Cl)cc3Cl)=NO[C@@H]2C(=O)N1c1ccc(Cc2ccc(N3C(=O)[C@H]4C(c5ccc(Cl)cc5Cl)=NO[C@H]4C3=O)cc2)cc1 | > 100 | > 100 | > 100 | > 100 |  | > 100 | > 100 | > 100 | > 100
N#CCCN(c1ccc(/C=C2\N=C(Cc3ccccc3)OC2=O)cc1)S(=O)(=O)c1ccccc1 | > 100 | > 100 | > 100 |  |  | > 100 | > 100 | > 100 | 
COc1ccccc1/C=C(\C#N)C(=O)c1ccccc1 |  | > 100 | > 100 | > 100 |  | > 100 | > 100 | > 100 | 
CN(C)CCC(O)(c1ccccc1)C(O)(CCN(C)C)c1ccccc1 (stereo not given) | > 100 | > 100 | > 100 | > 100 |  | > 100 | > 100 |  | 
CCOCN1COCN=C1NC#N | > 100 | > 100 | > 100 |  | > 100 | > 100 | > 100 | > 100 | > 100
Nc1nc(NCCO)c(N=O)c(=O)[nH]1 | > 100 | > 100 | > 100 | > 100 |  | > 100 | > 100 | > 100 | > 100
Cc1ccccc1C1OC(=O)c2ccccc21 (stereo not given) | > 100 | > 100 | > 100 | > 100 | > 100 | > 100 |  | > 100 | > 100
CCOc1ccc(NC(=O)C(=O)NO)cc1 | > 100 | > 100 | > 100 | > 100 |  | > 100 |  | > 100 | > 100
CCCCCCCc1cc(OC(=O)c2c(C)cc(OC)cc2O)cc(O)c1C(=O)O | 34.7 |  | 40.3 | 50.7 | 63.9 | > 100 |  | 87.9 | 
COC(=O)C1CCC(Nc2ccc(C)cc2C)=N1 (stereo not given) | > 100 |  | > 100 | > 100 | > 100 | > 100 | > 100 | > 100 | > 100
NC(=O)c1cccc(C2OC(COP(=O)(O)O)C(O)C2O)c1 (stereo not given) | > 50 |  | > 50 | > 50 |  | > 50 | > 50 | > 50 | 
